Columns and labels:
Settings in all cases: 21 DAA
SASKR = assay: Example III: post-emergence foliar-applied weed control in cereal crops, greenhouse; type: in vivo, Salsola tragus L.
Description: (§1) Seeds of the desired test plant species were planted in Sun Gro MetroMix® 306 planting mixture, which typically has a pH of 6.0 to 6.8 and an organic matter content of about 30 percent, in plastic pots with a surface area of 103.2 square centimeters (cm^2). When required to ensure good germination and healthy plants, a fungicide treatment and/or other chemical or physical treatment was applied. The plants were grown for 7-36 days in a greenhouse with an approximate 14 hour photoperiod which was maintained at about 18° C. during the day and 17° C. during the night. Nutrients and water were added on a regular basis and supplemental lighting was provided with overhead metal halide 1000-Watt lamps as necessary. The plants were employed for testing when they reached the second or third true leaf stage.
(§2) Treatments consisted of the benzyl ester of 4-amino-3-chloro-5-fluoro-6-(4-chloro-2-fluoro-3-methoxy-phenyl)pyridine-2-carboxylic acid (Compound A), formulated as an SC (suspension concentrate), and a second cereal herbicide alone and in combination.
(§3) Measured aliquots of the benzyl ester of 4-amino-3-chloro-5-fluoro-6-(4-chloro-2-fluoro-3-methoxy-phenyl)pyridine-2-carboxylic acid (Compound A) were placed in 25 milliliter (mL) glass vials and diluted in a volume of 1.25% (v/v) Agri-dex crop oil concentrated to obtain stock solutions. Compound requirements are based upon a 12 mL application volume at a rate of 187 liters per hectare (L/ha). Spray solutions of the second cereal herbicide and experimental compound mixtures were prepared by adding the stock solutions to the appropriate amount of dilution solution to form 12 mL spray solution with active ingredients in two- and three-way combinations. Formulated compounds were applied to the plant material with an overhead Mandel track sprayer equipped with an 8002E nozzle calibrated to deliver 187 L/ha over an application area of 0.503 square meters (m^2) at a spray height of 18 inches (46 cm) above average plant canopy. Control plants were sprayed in the same manner with the solvent blank.
(§4) The treated plants and control plants were placed in a greenhouse as described above and watered by sub-irrigation to prevent wash-off of the test compounds. After 20-22 days, the condition of the test plants as compared with that of the control plants was determined visually and scored on a scale of 0 to 100 percent where 0 corresponds to no injury and 100 corresponds to complete kill.
(§5) Colby's equation was used to determine the herbicidal effects expected from the mixtures (Colby, S. R. 1967. Calculation of the synergistic and antagonistic response of herbicide combinations. Weeds 15:20-22.).

ISCRU = assay: Example I: postemergence foliar-applied weed control, greenhouse; type: in vivo, Ischaemum rugosum Salisb. (saramollagrass)
Source text: Seeds or nutlets of the desired test plant species were planted in a soil matrix prepared by mixing a loam or sandy loam soil (e.g., 28.6 percent silt, 18.8 percent clay, and 52.6 percent sand, with a pH of about 5.8 and an organic matter content of about 1.8 percent) and calcareous grit in an 80 to 20 ratio. The soil matrix was contained in plastic pots with a volume of 1 quart and a surface area of 83.6 square centimeters (cm^2). When required to ensure good germination and healthy plants, a fungicide treatment and/or other chemical or physical treatment was applied. The plants were grown for 8-22 days in a greenhouse with an approximate 14 hr photoperiod which was maintained at about 29° C. during the day and 26° C. during the night. Nutrients (Peters Excel® 15-5-15 5-Ca 2-Mg and iron chelate) were applied in the irrigation solution as needed and water was added on a regular basis. Supplemental lighting was provided with overhead metal halide 1000-Watt lamps as necessary. The plants were employed for testing when they reached the first through fourth true leaf stage.
Treatments consisted of the acid or esters of 4-amino-3-chloro-5-fluoro-6-(4-chloro-2-fluoro-3-methoxy-phenyl)pyridine-2-carboxylic acid (Compound A), each formulated as an SC (suspension concentrate), and various herbicidal components alone and in combination. Forms of compound A were applied on an acid equivalent basis.
Other herbicidal components were applied on an active ingredient basis and included very long chain fatty acid (VLCFA) synthesis-inhibiting and fatty acid/lipid synthesis-inhibiting herbicides acetochlor (technical grade material), acetochlor+dichlormid formulated as Topnotch®, pretilachlor (technical grade material), butachlor formulated as Butachlor EC, fentrazamide formulated as Fentrazamide EC, thiobencarb formulated as Bolero® 8EC, cafenstrole formulated as Himeadow® WP or Lapost® Flowable, benfuresate formulated as Full Shot®, dimethenamid-P formulated as Outlook®, indanofan (technical grade material), flufenacet formulated as Define® DF, mefenacet (technical grade material), S-metolachlor formulated as Dual® II Magnum, pethoxamid formulated as Successor® 600, and pyroxasulfone (technical grade material).
Treatment requirements were calculated based upon the rates being tested, the concentration of active ingredient or acid equivalent in the formulation, and a 12 mL application volume at a rate of 187 L/ha.
For treatments comprised of formulated compounds, measured amounts of compounds were placed individually in 25 mL glass vials and diluted in a volume of 1.25% (v/v) Agri-Dex® crop oil concentrated to obtain 12× stock solutions. […]

STEME = assay: Example III: post-emergence foliar-applied weed control in cereal crops, greenhouse; type: in vivo, Stellaria media (L.) Vill.
Description: as §1, §2, §3, §4, §5

PAPRH = assay: as above; type: in vivo, Papaver rhoeas L.
Description: as §1, §2, §3, §4, §5

SINAR = assay: as above; type: in vivo, Sinapis arvensis L.
Description: as §1, §2, §3, §4, §5

GALAP = assay: as above; type: in vivo, Galium aparine L.
Description: as §1, §2, §3, §4, §5

CHEAL = assay: as above; type: in vivo, Chenopodium album L.
Description: as §1, §2, §3, §4, §5

COc1c(Cl)ccc(-c2nc(C(=O)OCc3ccccc3)c(Cl)c(N)c2F)c1F [Compound A Benzyl Ester, benzyl ester of 4-amino-3-chloro-5-fluoro-6-(4-chloro-2-fluoro-3-methoxy-phenyl)pyridine-2-carboxylic acid]
Visual Weed Control SASKR Obs (SASKR; 2.5 gai/ha): 15%
Visual Weed Control SASKR Obs (SASKR; 5 gai/ha): 50%
Visual Weed Control SASKR Obs (SASKR; 10 gai/ha): 67%
Visual Weed Control Obs (ISCRU; 8 gae/ha): 20%
Visual Weed Control Obs (ISCRU; 16 gae/ha): 0%
Visual Weed Control STEME Obs (STEME; 2.5 gai/ha): 25%
Visual Weed Control STEME Obs (STEME; 5 gai/ha): 25%
Visual Weed Control STEME Obs (STEME; 10 gai/ha): 27%
Visual Weed Control PAPRH Obs (PAPRH; 2.5 gai/ha): 48%
Visual Weed Control PAPRH Obs (PAPRH; 5 gai/ha): 28%
Visual Weed Control PAPRH Obs (PAPRH; 10 gai/ha): 35%
Visual Weed Control SINAR Obs (SINAR; 2.5 gai/ha): 70%
Visual Weed Control SINAR Obs (SINAR; 5 gai/ha): 73%
Visual Weed Control GALAP Obs (GALAP; 2.5 gai/ha): 55%
Visual Weed Control GALAP Obs (GALAP; 5 gai/ha): 66%
Visual Weed Control GALAP Obs (GALAP; 10 gai/ha): 77%
Visual Weed Control CHEAL Obs (CHEAL; 2.5 gai/ha): 50%
Visual Weed Control CHEAL Obs (CHEAL; 5 gai/ha): 58%
